# Laboratory results taken from PubChem BioAssay (NCI).
# Where “and” joins values, the source holds several entries; their conditions need not be identical. Equal values may be shown once.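 Assay format: 96-well plates, 48-hour exposure. GI50 = concentration required for 50% inhibition of growth. The concentration for full growth arrest is given as TGI.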 Where a SMILES comes first, the peptide text is derived from it. The star is where a group is joined. Cbz = O=C(OCc1ccccc1)*; Boc = CC(C)(C)OC(=O)*; OSu = O=C1CCC(=O)N1O*; Bn = c1ccc(C*)cc1
# What was measured:
# Assay in all cases: NCI tumour cell line growth inhibition, 48 h
# UACC-257 melanoma = test system: UACC-257 melanoma
# OVCAR-3 ovarian = test system: OVCAR-3 ovarian
# SK-MEL-28 melanoma = test system: SK-MEL-28 melanoma
# OVCAR-5 ovarian = test system: OVCAR-5 ovarian
# K-562 leukemia = test system: K-562 leukemia
# HCT-116 colon = test system: HCT-116 colon
# U251 CNS = test system: U251 CNS
# MDA-MB-231 breast = test system: MDA-MB-231 breast
# M14 melanoma = test system: M14 melanoma
# IGROV1 ovarian = test system: IGROV1 ovarian
# PC-3 prostate = test system: PC-3 prostate
# HCC-2998 colon = test system: HCC-2998 colon
# HL-60(TB) leukemia = test system: HL-60(TB) leukemia
# OVCAR-8 ovarian = test system: OVCAR-8 ovarian
SMILES,TGI (UACC-257 melanoma),TGI (OVCAR-3 ovarian),TGI (SK-MEL-28 melanoma),TGI (OVCAR-5 ovarian),TGI (K-562 leukemia),TGI (HCT-116 colon),TGI (U251 CNS),TGI (MDA-MB-231 breast),TGI (M14 melanoma),TGI (IGROV1 ovarian),TGI (PC-3 prostate),TGI (HCC-2998 colon),TGI (HL-60(TB) leukemia),TGI (OVCAR-8 ovarian),GI50 (SK-MEL-28 melanoma),GI50 (K-562 leukemia),GI50 (HCT-116 colon),GI50 (U251 CNS),GI50 (M14 melanoma),GI50 (OVCAR-8 ovarian)
O=C(N=Nc1cccc(Cl)c1)NNc1cccc(Cl)c1,54.3 µM,29.9 µM,41 µM,46.5 µM,39.6 µM,21.2 µM,40 µM,74.6 µM,32.2 µM,43.3 µM,36 µM,28.9 µM,41.7 µM,50.1 µM,,,,,,
O=c1[nH]nc(Cc2ccccc2)n1/N=C\c1ccccc1,> 100 µM,> 100 µM,> 100 µM,> 100 µM,> 100 µM,> 100 µM,> 100 µM,> 100 µM,,> 100 µM,> 100 µM,> 100 µM,> 100 µM,> 100 µM,,,,,,
CN(C)S(=O)(=O)/N=C/c1cccc(/C=N/S(=O)(=O)N(C)C)c1,> 100 µM,> 100 µM,> 100 µM,> 100 µM,> 100 µM,> 100 µM,> 100 µM,> 100 µM,> 100 µM,,> 100 µM,> 100 µM,> 100 µM,> 100 µM,,,,,,
CNC(=O)N(CCC#N)CCCN(C(=O)NC)c1ccccc1,> 100 µM,> 100 µM,> 100 µM,> 100 µM,> 100 µM,> 100 µM,> 100 µM,> 100 µM,> 100 µM,> 100 µM,> 100 µM,> 100 µM,> 100 µM,> 100 µM,,,,,,
O=c1oc2ccccc2c(O)c1/C=N/C(=S)NCCc1ccccc1,> 100 µM,> 100 µM,> 100 µM,> 100 µM,> 100 µM,> 100 µM,> 100 µM,> 100 µM,> 100 µM,> 100 µM,> 100 µM,> 100 µM,5.38 µM,> 100 µM,,,,,,
COC(CC1(/C=C/O[Si](C(C)C)(C(C)C)C(C)C)C(=O)N(C)c2ccccc21)OC (stereo not given),> 100 µM,> 100 µM,> 100 µM,> 100 µM,> 100 µM,> 100 µM,> 100 µM,> 100 µM,> 100 µM,,> 100 µM,> 100 µM,> 100 µM,> 100 µM,,,,,,
CN(N)c1cc(=O)[nH]c(=O)[nH]1,> 100 µM,> 100 µM,> 100 µM,,> 100 µM,> 100 µM,,> 100 µM,,> 100 µM,> 100 µM,> 100 µM,> 100 µM,> 100 µM,,,,,,
CC(=O)Nc1ccc(-c2nc3ccccc3s2)cc1I,> 100 µM,32.4 µM,> 100 µM,,> 100 µM,81 µM,> 81.6 µM,> 65.1 µM,> 87.7 µM,20 µM,> 100 µM,> 100 µM,> 100 µM,37.7 µM,,,,,,
CCN1C(=O)C(C)S/C1=N\NC(=O)CSc1nc2ccccc2c(=O)n1CC (stereo not given),> 100 µM,> 100 µM,> 100 µM,> 100 µM,> 100 µM,> 100 µM,> 100 µM,> 100 µM,> 100 µM,> 100 µM,> 100 µM,> 100 µM,> 100 µM,> 100 µM,,,,,,
COc1ccc2[nH]cc([C@@H]3C4CCC(C4)[C@H]3NCc3cccc(CN[C@H]4C5CCC(C5)[C@@H]4c4c[nH]c5ccc(OC)cc45)c3)c2c1,3.15 µM and 2.74 µM,2.89 µM and 3.02 µM,3.05 µM and 3.07 µM,3.12 µM and 2.88 µM,,1.08 µM and 2.02 µM,0.329 µM and 0.324 µM,2.42 µM and 2.98 µM,1.41 µM and 1.5 µM,2.61 µM,2.93 µM and 2.59 µM,0.53 µM and 0.842 µM,0.453 µM and 0.503 µM,1.86 µM and 2.35 µM,1.67 µM and 1.68 µM,0.375 µM,0.351 µM,0.168 µM and 0.17 µM,0.423 µM,0.625 µM
N#Cc1c(N)[nH]c(=S)c(C#N)c1-c1ccccc1,> 100 µM,> 100 µM,> 100 µM,> 100 µM,> 100 µM,> 100 µM,> 100 µM,> 100 µM,,> 100 µM,> 100 µM,> 100 µM,> 100 µM,> 100 µM,,,,,,
COc1cc(C2C(C#N)=C(N)OC3=C2CCS(=O)(=O)c2ccc(C)cc23)cc(OC)c1OC (stereo not given),> 100 µM,> 100 µM,> 100 µM,> 100 µM,> 100 µM,> 100 µM,> 100 µM,> 100 µM,> 100 µM,> 100 µM,> 100 µM,> 100 µM,> 100 µM,> 100 µM,,,,,,
CCOC(=O)C(C)NC(=O)C(C)NC(=O)C(C)NC(=O)C(C)NC(=O)C(C)NC(=O)OCc1ccccc1 (stereo not given),> 100 µM,> 100 µM,> 100 µM,> 100 µM,> 100 µM,> 100 µM,> 100 µM,> 100 µM,> 100 µM,> 100 µM,> 100 µM,> 100 µM,> 100 µM,> 100 µM,,,,,,
CCOC(=O)c1cnc2n(c1=N)[C@H]1CCCC[C@@H]1N2,> 100 µM,> 100 µM,> 100 µM,> 100 µM,> 100 µM,> 100 µM,> 100 µM,> 100 µM,> 100 µM,> 100 µM,> 100 µM,> 100 µM,> 100 µM,> 100 µM,,,,,,
COC(=O)/C=C1/CCC(C)(C(=O)NS(=O)(=O)c2ccc(C)cc2)C1(C)C (stereo not given),> 100 µM,> 100 µM,> 100 µM,> 100 µM,> 100 µM,> 100 µM,> 100 µM,> 100 µM,> 100 µM,> 100 µM,> 100 µM,> 100 µM,> 100 µM,> 100 µM,,,,,,
Cc1nc(N/N=C/c2ccccc2Cl)[nH]c(=O)c1CCO,> 100 µM,46.5 µM,> 100 µM,> 100 µM,> 100 µM,> 100 µM,> 100 µM,> 100 µM,> 100 µM,> 100 µM,> 100 µM,> 100 µM,> 100 µM,51.7 µM,,,,,,
CN(C)P(=O)(Oc1ccc(CC(NC(=O)OCc2ccccc2)C(=O)OCc2ccccc2)cc1)N(C)C (stereo not given),47.5 µM,11.4 µM,34.4 µM,38.6 µM,64.1 µM,31.3 µM,28.2 µM,34.3 µM,32 µM,32.9 µM,29.9 µM,37.8 µM,32.9 µM,33.2 µM,,,,,,
C=C(C)[C@H]1C=C[C@@H](OC(=O)c2cccnc2)[C@@]23CO[C@@](C)([C@H](OC(=O)c4cccnc4)[C@@]4(OC(C)=O)C[C@H](C)[C@H](OCCC)[C@@H]4[C@H]2OC(C)=O)[C@H]13,> 15 µM,> 15 µM,,> 15 µM,> 15 µM,> 15 µM,> 15 µM,> 15 µM,> 15 µM,> 15 µM,> 15 µM,> 15 µM,14.1 µM,> 15 µM,,,,,,
Nc1ccn(C2CCC(CO)O2)c(=S)n1 (stereo not given),> 100 µM,> 100 µM,,> 100 µM,> 100 µM,> 100 µM,> 100 µM,> 100 µM,> 100 µM,> 100 µM,> 100 µM,> 100 µM,> 100 µM,> 100 µM,,,,,,
Cc1ccc(N=Nc2ccc(O)c(CN(C)C)c2)cc1,32.3 µM,31.8 µM,41.1 µM,29.7 µM,39.6 µM,51.8 µM,> 100 µM,56.3 µM,41.6 µM,35 µM,54.7 µM,29.5 µM,41.3 µM,42.3 µM,,,,,,
COc1ccc2cc(C(=O)O)ccc2c1OC,> 100 µM,> 100 µM,,> 100 µM,> 100 µM,> 100 µM,> 100 µM,> 100 µM,> 100 µM,> 100 µM,> 100 µM,> 100 µM,> 100 µM,> 100 µM,,,,,,
CC(C)(C)OC(=O)NC(Cc1ccc(OCc2ccccc2)cc1)C(=O)NC(CCCCNC(=O)OCc1ccccc1)C(=O)ON1C(=O)CCC1=O (stereo not given) (Boc-Tyr(Bn)-Lys(Cbz)-OSu; configuration not given here),> 100 µM,,30.8 µM,76.7 µM,73.6 µM,41 µM,32.2 µM,81.1 µM,46.2 µM,33.1 µM,57.7 µM,32 µM,49.3 µM,51.9 µM,,,,,,
O=C(O)c1cc(/C=C/c2cc(O)ccc2O)ccc1O,> 10 µM,> 10 µM,,> 10 µM,> 10 µM,,> 10 µM,> 10 µM,> 10 µM,,> 10 µM,> 10 µM,> 10 µM,> 10 µM,,,,,,
COc1ccc(C(CC(=O)C(C)(C)CN2CCCCC2)SCCS(=O)(=O)O)cc1 (stereo not given),> 100 µM,38.3 µM,,> 100 µM,> 100 µM,> 100 µM,> 100 µM,75.1 µM,57.2 µM,> 100 µM,> 100 µM,> 100 µM,67 µM,> 100 µM,,,,,,
